Measured values reported in patent US20070015223A1, “Method of detecting substance to be analyzed” (OLYMPUS CORPORATION, priority 2003, published 2007).

Assays:
[1] = test system: genes to be analyzed in rat liver; assay: microarray expression level ratio, control experiment with fixed tyramide reaction time of 5 minutes (Table 3)
[2] = test system: genes to be analyzed in rat liver; assay: microarray expression level ratio, tyramide reaction time adjusted by GAPDH spot signal intensity (Example 7, Table 1)
[3] = test system: genes to be analyzed in rat liver; assay: microarray expression level ratio, sample amount quantified and matched (Example 5, Table 2)
[4] = Phenobal group rat liver, aRNA 400 ng, Deposition Time 5 min.
[5] = rat liver, aRNA 400 ng vs 100 ng, Deposition Time 5 min. both, corrected using the internal standard gene
[6] = Phenobal group rat liver, aRNA 400 ng, Deposition Time 2 min.
[7] = rat liver, aRNA 400 ng vs 100 ng, Deposition Time 2 min. vs 7 min.
[8] = Phenobal group rat liver, aRNA 200 ng, Deposition Time 5 min.
[9] = rat liver, aRNA 200 ng both, Deposition Time 5 min. both

CCC1(c2ccccc2)C(=O)NC(=O)NC1=O [Phenobal, phenobarbital]
Raw Data (spot signal intensity), Gene a [1, 4]: 1700
Raw Data (spot signal intensity), Gene b [1, 4]: 1875
Raw Data (spot signal intensity), Gene c [1, 4]: 625
Raw Data (spot signal intensity), Gene d [1, 4]: 4095
Raw Data (spot signal intensity), Gene e [1, 4]: 1250
Raw Data (spot signal intensity), Gene f [1, 4]: 150
Raw Data (spot signal intensity), Gene GAPDH ([1]; internal standard gene, Phenobal group rat liver, aRNA 400 ng, Deposition Time 5 min.): 4095
Ratio (Phenobal/Control), Gene GAPDH ([1]; internal standard gene, rat liver, aRNA 400 ng vs 100 ng, Deposition Time 5 min. both): 1.0
Ratio (Phenobal/Control), Gene a [1, 5]: 2.6
Ratio (Phenobal/Control), Gene b [1, 5]: 4.1
Ratio (Phenobal/Control), Gene c [1, 5]: 0.7
Ratio (Phenobal/Control), Gene d [1, 5]: 1.6
Ratio (Phenobal/Control), Gene e [1, 5]: 0.2
Ratio (Phenobal/Control), Gene f [1, 5]: 1.6
Raw Data (spot signal intensity), Gene A [2, 6]: 680
Raw Data (spot signal intensity), Gene B [2, 6]: 750
Raw Data (spot signal intensity), Gene C [2, 6]: 250
Raw Data (spot signal intensity), Gene D [2, 6]: 2800
Raw Data (spot signal intensity), Gene E [2, 6]: 500
Raw Data (spot signal intensity), Gene F [2, 6]: 60
Raw Data (spot signal intensity), Gene GAPDH ([2]; internal standard gene, Phenobal group rat liver, aRNA 400 ng, Deposition Time 2 min.): 2500
Ratio (Phenobal/Control), Gene GAPDH ([2]; internal standard gene, rat liver, aRNA 400 ng vs 100 ng, Deposition Time 2 min. vs 7 min.): 1.0
Ratio (Phenobal/Control), Gene A [2, 7]: 1.8
Ratio (Phenobal/Control), Gene B [2, 7]: 2.8
Ratio (Phenobal/Control), Gene C [2, 7]: 0.5
Ratio (Phenobal/Control), Gene D [2, 7]: 1.9
Ratio (Phenobal/Control), Gene E [2, 7]: 0.2
Ratio (Phenobal/Control), Gene F [2, 7]: 1.2
Raw Data (spot signal intensity), Gene a [3, 8]: 650
Raw Data (spot signal intensity), Gene b [3, 8]: 745
Raw Data (spot signal intensity), Gene c [3, 8]: 255
Raw Data (spot signal intensity), Gene d [3, 8]: 2900
Raw Data (spot signal intensity), Gene e [3, 8]: 550
Raw Data (spot signal intensity), Gene f [3, 8]: 65
Raw Data (spot signal intensity), Gene GAPDH ([3]; internal standard gene, Phenobal group rat liver, aRNA 200 ng, Deposition Time 5 min.): 2500
Ratio (Phenobal/Control), Gene GAPDH ([3]; internal standard gene, rat liver, aRNA 200 ng both, Deposition Time 5 min. both): 1.0
Ratio (Phenobal/Control), Gene a [3, 9]: 1.8
Ratio (Phenobal/Control), Gene b [3, 9]: 2.6
Ratio (Phenobal/Control), Gene c [3, 9]: 0.5
Ratio (Phenobal/Control), Gene d [3, 9]: 2.1
Ratio (Phenobal/Control), Gene e [3, 9]: 0.2
Ratio (Phenobal/Control), Gene f [3, 9]: 1.1
